From patent US10244756B2, “Fungicidal N-cycloalkyl-N-{[ortho-(1-substituted-cycloalkyl)heteroaryl]methyl}(thio)carboxamides” (Bayer CropScience Aktiengesellschaft, priority 2015, dated 2019)

What was measured:
[1] = logP by HPLC on reversed-phase column (C 18), EEC Directive 79/831 Annex V.A8; assay type: physicochemical; settings: reversed-phase HPLC column (C 18), 40° C., 0.1% aqueous formic acid and acetonitrile, gradient 10% to 90% acetonitrile
Method: In table 1, the logP values were determined in accordance with EEC Directive 79/831 Annex V.A8 by HPLC (High Performance Liquid Chromatography) on a reversed-phase column (C 18), using the method described below: Temperature: 40° C.; Mobile phases: 0.1% aqueous formic acid and acetonitrile; linear gradient from 10% acetonitrile to 90% acetonitrile. Calibration was carried out using unbranched alkan-2-ones (comprising 3 to 16 carbon atoms) with known logP values (determination of the logP values by the retention times using linear interpolation between two successive alkanones). lambda-max-values were determined using UV-spectra from 200 nm to 400 nm and the peak values of the chromatographic signals.

Uromyces appendiculatus = assay: In vivo preventive test on Uromyces appendiculatus (bean rust); settings: Table B2, dose 100 ppm, evaluated 11 days after inoculation
Method: (§1) Example B: In Vivo Preventive Test on Uromyces Appendiculatus (Bean Rust) Solvent: 5% by volume of Dimethyl sulfoxide • 10% by volume of Acetone Emulsifier: 1 μL of Tween® 80 per mg of active ingredient The active ingredients are made soluble and homogenized in a mixture of Dimethyl sulfoxide/Acetone/Tween® 80 and then diluted in water to the desired concentration. The young plants of bean are treated by spraying the active ingredient prepared as described above. Control plants are treated only with an aqueous solution of Acetone/Dimethyl sulfoxide/Tween® 80. After 24 hours, the plants are contaminated by spraying the leaves with an aqueous suspension of Uromyces appendiculatus spores. The contaminated bean plants are incubated for 24 hours at 20° C. and at 100% relative humidity and then for 10 days at 20° C. and at 70-80% relative humidity. The test is evaluated 11 days after the inoculation. 0% means an efficacy which corresponds to that of the control plants while an efficacy of 100% means that no disease is observed.

Puccinia recondita = assay: In vivo preventive test on Puccinia recondita (brown rust on wheat); settings: Table A2, dose 100 ppm, evaluated 11 days after inoculation
Method: as §1, with “A:” for “B:”, “Puccinia Recondita (Brown Rust on Wheat)” for “Uromyces Appendiculatus (Bean Rust)”, “wheat” for “bean”, “Puccinia recondita” for “Uromyces appendiculatus”

SMILES	chromatographic logP [1]	Efficacy (Uromyces appendiculatus)	Efficacy (Puccinia recondita)
Cc1cc(C2(Cl)CC2)c(CN(C(=O)c2cn(C)nc2C(F)F)C2CC2)s1 [Example I.05, N-{[3-(1-chlorocyclopropyl)-5-methyl-2-thienyl]methyl}-N-cyclopropyl-3-(difluoromethyl)-1-methyl-1H-pyrazole-4-carboxamide]	3.39	–	–
CC(C)c1ncc(Cl)cc1CN(C(=O)c1cn(C)nc1C(F)F)C1CC1 [CMP1, N-[(5-chloro-2-isopropylpyridin-3-yl)methyl]-N-cyclopropyl-3-(difluoromethyl)-1-methyl-1H-pyrazole-4-carboxamide]	–	0%	0%
